From patent US9266878B2, “Phosphatidylinositol 3-kinase inhibitors” (Gilead Calistoga LLC, priority 2012, dated 2016)

How the values were obtained:
Test in all cases: Enzymatic activity of PI3K isoforms, TR-FRET assay (PIP3 formation)
Type in all cases: biochemical
PI3Kγ = PI3Kγ (Homo sapiens (Human), UniProt P48736)
Procedure, shortened: (§1)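 Recombinant heterodimeric class I PI3K enzymes were assayed by TR-FRET. PIP3 product displaces fluorescently labelled PIP3 from the GRP-1 PH domain, lowering the signal; IC50 values are given in nM.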

PI3Kβ = PI3Kβ (Homo sapiens (Human), UniProt P42338)
Procedure, shortened: as §1

PI3Kδ = PI3Kδ (Homo sapiens (Human), UniProt O00329); details: bound given in nM
Chain of PI3Kδ (O00329 whole entry, the tested form may be a part): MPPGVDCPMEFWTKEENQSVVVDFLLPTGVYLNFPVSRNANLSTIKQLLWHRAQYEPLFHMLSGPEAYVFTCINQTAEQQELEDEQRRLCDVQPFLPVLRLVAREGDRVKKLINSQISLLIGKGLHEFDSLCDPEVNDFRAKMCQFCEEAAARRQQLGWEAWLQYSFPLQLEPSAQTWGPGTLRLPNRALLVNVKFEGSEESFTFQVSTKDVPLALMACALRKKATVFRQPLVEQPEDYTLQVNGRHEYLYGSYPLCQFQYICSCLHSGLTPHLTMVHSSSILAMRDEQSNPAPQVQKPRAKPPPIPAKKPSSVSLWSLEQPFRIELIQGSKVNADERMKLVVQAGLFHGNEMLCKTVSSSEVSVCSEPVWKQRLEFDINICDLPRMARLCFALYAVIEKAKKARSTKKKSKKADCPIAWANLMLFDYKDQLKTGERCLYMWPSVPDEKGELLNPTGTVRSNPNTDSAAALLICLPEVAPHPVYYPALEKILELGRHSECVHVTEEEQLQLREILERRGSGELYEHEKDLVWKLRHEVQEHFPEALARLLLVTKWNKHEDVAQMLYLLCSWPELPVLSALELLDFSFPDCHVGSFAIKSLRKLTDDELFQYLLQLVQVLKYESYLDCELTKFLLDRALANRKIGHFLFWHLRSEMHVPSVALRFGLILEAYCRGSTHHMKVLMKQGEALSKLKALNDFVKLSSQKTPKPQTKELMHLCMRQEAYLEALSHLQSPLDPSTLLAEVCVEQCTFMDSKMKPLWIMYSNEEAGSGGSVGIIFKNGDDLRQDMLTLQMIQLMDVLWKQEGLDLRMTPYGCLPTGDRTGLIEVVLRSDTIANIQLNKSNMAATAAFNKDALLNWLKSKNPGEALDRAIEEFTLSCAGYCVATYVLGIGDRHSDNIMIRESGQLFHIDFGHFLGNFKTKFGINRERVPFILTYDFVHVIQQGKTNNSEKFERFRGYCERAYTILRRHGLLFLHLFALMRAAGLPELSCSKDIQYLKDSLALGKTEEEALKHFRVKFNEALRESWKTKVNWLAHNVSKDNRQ
Chain of PI3Kδ (P27986 whole entry partner, the tested form may be a part): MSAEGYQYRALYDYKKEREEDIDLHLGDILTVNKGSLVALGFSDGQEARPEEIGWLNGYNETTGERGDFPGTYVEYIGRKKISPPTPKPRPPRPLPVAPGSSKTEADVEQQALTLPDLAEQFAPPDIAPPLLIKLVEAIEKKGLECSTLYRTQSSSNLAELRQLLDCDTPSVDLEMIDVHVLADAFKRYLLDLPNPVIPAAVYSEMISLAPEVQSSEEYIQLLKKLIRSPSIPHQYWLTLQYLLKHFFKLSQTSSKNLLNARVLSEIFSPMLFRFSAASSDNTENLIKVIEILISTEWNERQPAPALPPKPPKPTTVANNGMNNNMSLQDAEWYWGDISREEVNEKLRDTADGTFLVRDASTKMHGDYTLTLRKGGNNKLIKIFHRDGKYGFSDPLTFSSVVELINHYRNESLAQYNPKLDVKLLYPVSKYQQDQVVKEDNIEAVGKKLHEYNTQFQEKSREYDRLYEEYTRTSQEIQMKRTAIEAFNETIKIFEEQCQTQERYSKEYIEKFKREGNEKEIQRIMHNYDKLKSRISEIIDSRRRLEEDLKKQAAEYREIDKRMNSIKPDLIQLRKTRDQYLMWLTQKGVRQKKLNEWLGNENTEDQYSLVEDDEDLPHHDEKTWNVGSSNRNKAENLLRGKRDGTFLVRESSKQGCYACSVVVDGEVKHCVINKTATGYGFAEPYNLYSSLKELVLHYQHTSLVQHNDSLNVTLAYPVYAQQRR
Procedure, shortened: (§2)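 Heterodimeric recombinant class I PI3K; PIP3 product displaces labeled PIP3 from GRP-1 PH domain, lowering TR-FRET. Reaction 30 min at 25° C, stopped with 10 mM EDTA, 10 nM labeled-PIP3, 35 nM Eu-GRP-1. Read Ex 340 nm, Em 615/665 nm; IC50 in nM.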

PI3Kα = PI3Kα (Homo sapiens (Human), UniProt P42336)
Chain of PI3Kα (P42336 whole entry): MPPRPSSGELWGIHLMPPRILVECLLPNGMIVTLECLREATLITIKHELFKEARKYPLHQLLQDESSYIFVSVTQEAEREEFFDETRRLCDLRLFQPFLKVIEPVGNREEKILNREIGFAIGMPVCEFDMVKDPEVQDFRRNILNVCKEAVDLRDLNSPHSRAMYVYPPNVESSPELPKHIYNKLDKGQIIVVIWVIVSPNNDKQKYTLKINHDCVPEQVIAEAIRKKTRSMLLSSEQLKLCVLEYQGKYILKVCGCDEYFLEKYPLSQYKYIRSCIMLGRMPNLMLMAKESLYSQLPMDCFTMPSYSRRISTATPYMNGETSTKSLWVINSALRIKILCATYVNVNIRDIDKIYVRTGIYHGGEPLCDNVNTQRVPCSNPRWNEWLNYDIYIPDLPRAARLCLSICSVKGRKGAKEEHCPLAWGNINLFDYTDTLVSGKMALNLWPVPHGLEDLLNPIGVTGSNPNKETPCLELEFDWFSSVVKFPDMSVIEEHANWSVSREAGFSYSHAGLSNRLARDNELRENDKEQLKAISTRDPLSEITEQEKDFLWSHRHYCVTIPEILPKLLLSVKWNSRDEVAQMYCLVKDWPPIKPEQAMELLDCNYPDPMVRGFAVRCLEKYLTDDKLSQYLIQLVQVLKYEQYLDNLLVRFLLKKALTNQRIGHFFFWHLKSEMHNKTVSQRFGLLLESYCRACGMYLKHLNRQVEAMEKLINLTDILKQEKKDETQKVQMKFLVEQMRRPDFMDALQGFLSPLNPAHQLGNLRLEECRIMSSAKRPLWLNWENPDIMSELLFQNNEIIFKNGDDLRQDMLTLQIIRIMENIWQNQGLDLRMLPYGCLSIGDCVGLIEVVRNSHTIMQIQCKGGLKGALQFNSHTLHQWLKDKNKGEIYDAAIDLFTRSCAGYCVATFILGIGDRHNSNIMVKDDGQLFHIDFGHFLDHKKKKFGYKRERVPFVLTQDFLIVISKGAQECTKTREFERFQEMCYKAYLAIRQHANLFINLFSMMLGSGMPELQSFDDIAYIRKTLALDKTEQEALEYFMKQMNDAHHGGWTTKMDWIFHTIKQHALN
Chain of PI3Kα (P27986 whole entry partner): as the sequence (P27986 whole entry partner, the tested form may be a part) above
Procedure, shortened: as §2

Chain of PI3Kγ (P48736 whole entry, the tested form may be a part): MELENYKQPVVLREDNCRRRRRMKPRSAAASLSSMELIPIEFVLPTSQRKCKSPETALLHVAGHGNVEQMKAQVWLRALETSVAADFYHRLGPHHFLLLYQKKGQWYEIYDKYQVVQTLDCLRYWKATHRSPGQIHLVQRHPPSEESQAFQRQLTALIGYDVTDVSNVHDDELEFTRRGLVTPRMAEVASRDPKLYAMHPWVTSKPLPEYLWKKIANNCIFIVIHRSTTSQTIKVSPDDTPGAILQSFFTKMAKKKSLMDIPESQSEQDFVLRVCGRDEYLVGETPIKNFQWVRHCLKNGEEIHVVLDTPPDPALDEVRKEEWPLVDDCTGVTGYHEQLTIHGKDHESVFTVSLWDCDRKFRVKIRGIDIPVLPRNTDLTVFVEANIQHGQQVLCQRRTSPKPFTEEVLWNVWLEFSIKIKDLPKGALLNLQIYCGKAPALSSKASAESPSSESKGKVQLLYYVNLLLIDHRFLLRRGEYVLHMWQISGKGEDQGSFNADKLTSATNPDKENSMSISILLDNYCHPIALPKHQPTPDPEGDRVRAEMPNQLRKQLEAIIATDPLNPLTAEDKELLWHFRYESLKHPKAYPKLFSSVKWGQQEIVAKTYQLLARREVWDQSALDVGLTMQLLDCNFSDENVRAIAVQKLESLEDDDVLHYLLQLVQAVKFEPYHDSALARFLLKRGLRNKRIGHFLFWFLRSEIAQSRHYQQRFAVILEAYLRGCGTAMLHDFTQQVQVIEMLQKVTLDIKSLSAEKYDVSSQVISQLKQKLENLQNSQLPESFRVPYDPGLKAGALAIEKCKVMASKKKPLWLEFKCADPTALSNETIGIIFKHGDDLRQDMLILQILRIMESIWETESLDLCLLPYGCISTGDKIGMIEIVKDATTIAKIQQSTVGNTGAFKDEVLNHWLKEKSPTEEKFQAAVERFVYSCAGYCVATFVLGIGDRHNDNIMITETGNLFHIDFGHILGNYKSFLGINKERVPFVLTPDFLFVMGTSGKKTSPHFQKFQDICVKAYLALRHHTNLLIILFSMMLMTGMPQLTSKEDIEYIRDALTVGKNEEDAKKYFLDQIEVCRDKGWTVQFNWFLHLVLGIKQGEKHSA
Chain of PI3Kγ (Q8WYR1 whole entry partner, the tested form may be a part): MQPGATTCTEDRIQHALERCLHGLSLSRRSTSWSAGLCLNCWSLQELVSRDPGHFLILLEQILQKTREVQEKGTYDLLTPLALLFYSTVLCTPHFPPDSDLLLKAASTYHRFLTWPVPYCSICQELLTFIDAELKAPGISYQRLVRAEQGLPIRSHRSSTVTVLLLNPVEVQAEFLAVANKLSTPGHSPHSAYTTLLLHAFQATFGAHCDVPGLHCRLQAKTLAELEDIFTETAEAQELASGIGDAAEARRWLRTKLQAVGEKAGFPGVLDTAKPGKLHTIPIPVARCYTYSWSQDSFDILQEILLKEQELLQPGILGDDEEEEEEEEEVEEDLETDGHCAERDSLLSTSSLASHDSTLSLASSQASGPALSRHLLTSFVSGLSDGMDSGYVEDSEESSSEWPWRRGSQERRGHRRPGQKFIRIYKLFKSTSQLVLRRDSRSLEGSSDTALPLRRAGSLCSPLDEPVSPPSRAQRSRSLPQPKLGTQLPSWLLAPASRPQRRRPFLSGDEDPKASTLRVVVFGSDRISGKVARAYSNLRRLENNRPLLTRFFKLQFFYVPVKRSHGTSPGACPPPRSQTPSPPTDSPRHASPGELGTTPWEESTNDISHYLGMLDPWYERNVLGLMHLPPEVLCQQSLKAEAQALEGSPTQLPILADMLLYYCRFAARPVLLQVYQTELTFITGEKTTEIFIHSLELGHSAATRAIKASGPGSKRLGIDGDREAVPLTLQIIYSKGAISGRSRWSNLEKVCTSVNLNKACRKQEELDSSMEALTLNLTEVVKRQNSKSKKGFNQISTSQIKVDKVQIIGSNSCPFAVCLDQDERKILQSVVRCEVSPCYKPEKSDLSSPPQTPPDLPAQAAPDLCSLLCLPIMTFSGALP

Row | Compound | IC50 (PI3Kγ; bound given in nM) [nM] | IC50 (PI3Kβ; bound given in nM) [nM] | IC50 (PI3Kδ) [nM] | IC50 (PI3Kα; bound given in nM) [nM] | IC50 (PI3Kγ; bound given in uM) [nM] | IC50 (PI3Kβ; bound given in uM) [nM] | IC50 (PI3Kα; bound given in uM) [nM]
1 | Cc1ccc(F)c2nc([C@H](C)Nc3ncnc(N)c3C#Cc3ccc(F)cn3)n(-c3cccc(C#N)c3)c(=O)c12 [Compound 72a, (S)-3-(2-(1-((6-amino-5-((5-fluoropyridin-2-yl)ethynyl)pyrimidin-4-yl)amino)ethyl)-8-fluoro-5-methyl-4-oxoquinazolin-3(4H)-yl)benzonitrile] |  |  | < 100 |  | > 1000 | > 1000 | > 1000
2 | C[C@H](Nc1ncnc(N)c1C#Cc1cnccn1)c1nc2c(F)cccc2c(=O)n1-c1cc(F)cc(F)c1 [Compound 100a, (S)-2-(1-((6-amino-5-(pyrazin-2-ylethynyl)pyrimidin-4-yl)amino)ethyl)-3-(3,5-difluorophenyl)-8-fluoroquinazolin-4(3H)-one] |  |  | < 100 |  | > 1000 | > 1000 | > 1000
3 | C[C@H](Nc1ncnc(N)c1C#CC1CC1)c1nc2cccc(Cl)c2c(=O)n1-c1cc(F)cc(F)c1 [Compound 23a, (S)-2-(1-(6-amino-5-(cyclopropylethynyl)pyrimidin-4-ylamino)ethyl)-5-chloro-3-(3,5-difluorophenyl)quinazolin-4(3H)-one] |  |  | < 100 |  | > 1000 | > 1000 | > 1000
4 | C[C@H](Nc1ncnc(N)c1C#CC1CC1)c1nc2cccc(Cl)c2c(=O)n1-c1ccccc1 [Compound 24a, (S)-2-(1-(6-amino-5-(cyclopropylethynyl)pyrimidin-4-ylamino)ethyl)-5-chloro-3-phenylquinazolin-4(3H)-one] |  |  | < 100 |  | > 1000 | > 1000 | > 1000
5 | CC[C@H](Nc1ncnc(N)c1C#Cc1cnccn1)c1nc2cccc(C(F)F)c2c(=O)n1-c1cc(F)cc(F)c1 [Compound 74a, (S)-2-(1-((6-amino-5-(pyrazin-2-ylethynyl)pyrimidin-4-yl)amino)propyl)-5-(difluoromethyl)-3-(3,5-difluorophenyl)quinazolin-4(3H)-one] |  |  | < 100 |  | > 1000 | > 1000 | > 1000
6 | C[C@H](Nc1ncnc(N)c1C#Cc1ccc(F)cn1)c1nc2cccc(O)c2c(=O)n1-c1ccccc1 [Compound 52a, (S)-2-(1-((6-amino-5-((5-fluoropyridin-2-yl)ethynyl)pyrimidin-4-yl)amino)ethyl)-5-hydroxy-3-phenylquinazolin-4(3H)-one] |  |  | < 100 |  | > 1000 | > 1000 | > 1000
7 | COc1cc(F)cc(C#Cc2c(N)ncnc2N[C@@H](C)c2nc3c(F)cccc3c(=O)n2-c2ccccc2)c1 [Compound 64a, (S)-2-(1-((6-amino-5-((3-fluoro-5-methoxyphenyl)ethynyl)pyrimidin-4-yl)amino)ethyl)-8-fluoro-3-phenylquinazolin-4(3H)-one] |  |  | < 100 |  | > 1000 | > 1000 | > 1000
8 | C[C@H](Nc1ncnc(N)c1C#Cc1ncc(F)cc1F)c1nc2cccc(Cl)c2c(=O)n1-c1ccccc1 [Compound 82a, (S)-2-(1-((6-amino-5-((3,5-difluoropyridin-2-yl)ethynyl)pyrimidin-4-yl)amino)ethyl)-5-chloro-3-phenylquinazolin-4(3H)-one] |  |  | < 100 |  | > 1000 | > 1000 | > 1000
9 | C[C@H](Nc1ncnc(N)c1C#Cc1ccc(F)cn1)c1nc2cccc(C(F)F)c2c(=O)n1-c1cccc(C#N)c1 [Compound 70a, (S)-3-(2-(1-((6-amino-5-((5-fluoropyridin-2-yl)ethynyl)pyrimidin-4-yl)amino)ethyl)-5-(difluoromethyl)-4-oxoquinazolin-3(4H)-yl)benzonitrile] |  |  | < 100 |  | > 1000 | > 1000 | > 1000
10 | COc1cc(F)cc(C#Cc2c(N)ncnc2N[C@@H](C)c2nc3cccc(F)c3c(=O)n2-c2ccccc2)c1 [Compound 65a, (S)-2-(1-((6-amino-5-((3-fluoro-5-methoxyphenyl)ethynyl)pyrimidin-4-yl)amino)ethyl)-5-fluoro-3-phenylquinazolin-4(3H)-one] |  |  | < 100 |  | > 1000 | > 1000 | > 1000

Now from value to molecule:

Row | IC50 (PI3Kγ; bound given in nM) [nM] | IC50 (PI3Kβ; bound given in nM) [nM] | IC50 (PI3Kδ) [nM] | IC50 (PI3Kα; bound given in nM) [nM] | IC50 (PI3Kγ; bound given in uM) [nM] | IC50 (PI3Kβ; bound given in uM) [nM] | IC50 (PI3Kα; bound given in uM) [nM] | Compound
11 | < 100 | < 100 | < 100 | < 100 |  |  |  | C[C@H](Nc1ncnc(N)c1C#Cc1cccc(N)n1)c1nc2cccc(Cl)c2c(=O)n1-c1ccccc1 [Compound 31a, (S)-2-(1-(6-amino-5-((6-aminopyridin-2-yl)ethynyl)pyrimidin-4-ylamino)ethyl)-5-chloro-3-phenylquinazolin-4(3H)-one]
12 |  |  | < 100 |  | > 1000 | > 1000 | > 1000 | C[C@H](Nc1ncnc(N)c1C#C[C@@H](C)O)c1nc2cccc(Cl)c2c(=O)n1-c1ccccc1 [Compound 19a, 2-((S)-1-(6-amino-5-((R)-3-hydroxybut-1-ynyl)pyrimidin-4-ylamino)ethyl)-5-chloro-3-phenylquinazolin-4(3H)-one]
13 |  |  | < 100 |  | > 1000 | > 1000 | > 1000 | C[C@H](Nc1ncnc(N)c1C#Cc1ccc(F)cn1)c1nc2cccc(C(F)(F)F)c2c(=O)n1-c1ccccc1 [Compound 68a, (S)-2-(1-((6-amino-5-((5-fluoropyridin-2-yl)ethynyl)pyrimidin-4-yl)amino)ethyl)-3-phenyl-5-(trifluoromethyl)quinazolin-4(3H)-one]
14 | < 100 | < 100 | < 100 | < 100 |  |  |  | C[C@H](Nc1ncnc(N)c1C#Cc1cnc(N)nc1)c1nc2cccc(Cl)c2c(=O)n1-c1ccccc1 [Compound 33a, (S)-2-(1-(6-amino-5-((2-aminopyrimidin-5-yl)ethynyl)pyrimidin-4-ylamino)ethyl)-5-chloro-3-phenylquinazolin-4(3H)-one]
15 |  |  | < 100 |  | > 1000 | > 1000 | > 1000 | C[C@H](Nc1ncnc(N)c1C#Cc1ccccn1)c1nc2cccc(Cl)c2c(=O)n1-c1cc(F)cc(F)c1 [Compound 45a, (S)-2-(1-(6-amino-5-(pyridin-2-ylethynyl)pyrimidin-4-ylamino)ethyl)-5-chloro-3-(3,5-difluorophenyl)quinazolin-4(3H)-one]
16 |  |  | < 100 |  | > 1000 | > 1000 | > 1000 | CC[C@H](Nc1ncnc(N)c1C#Cc1cnccn1)c1nc2cccc(C)c2c(=O)n1-c1cc(F)cc(F)c1 [Compound 108a, (S)-2-(1-((6-amino-5-(pyrazin-2-ylethynyl)pyrimidin-4-yl)amino)propyl)-3-(3,5-difluorophenyl)-5-methylquinazolin-4(3H)-one]
